The structures appear in SMILES notation. In brackets after ≈: the same amount, converted by molar mass.

By MIC is commonly meant the smallest concentration in the dilution series that meets the test's criterion for growth inhibition. The low end stands for greater potency, the high end for weaker potency.

Test systems include Bacillus subtilis 168 HT; Acinetobacter baumannii; Klebsiella pneumoniae; Pseudomonas aeruginosa; Escherichia coli MG1655; Bacillus subtilis; Escherichia coli ML-35p.
What all share (test): ≥ marks a high value that may be exact or a test limit, other limits are often not marked, values filed in µg/mL are converted to µM
The test system of experiment [1] is Candida albicans ATCC 24433.
For experiment [2], the system named is Escherichia coli ATCC 25922.
The test system of experiment [3] is Staphylococcus epidermidis ATCC 12228.
Experiment [4] deals with Escherichia coli K12 MG1655.
For experiment [5], the system named is Klebsiella pneumoniae ATCC 13883.
For experiment [6], the system named is Staphylococcus aureus USA 300 LAC.
In experiment [7] the test system is Acinetobacter baumannii ATCC 19606.
For experiment [8], the system named is Bacillus subtilis ATCC 6051.
In experiment [9] the test system is Candida albicans ATCC 90028.
Experiment [10] has as its system Cryptococcus neoformans ATCC 208821.
In experiment [11] the test system is Klebsiella pneumoniae ATCC 700603.
Experiment [12] deals with Klebsiella pneumoniae ATCC BAA-2146.
Experiment [13] relates to Pseudomonas aeruginosa ATCC 27853.
Experiment [14] relates to Staphylococcus aureus ATCC 43300.
Experiment [15] deals with Candida albicans NCYC 1467.
Experiment [16] deals with Escherichia coli NCTC 10418.
The subject of experiment [17] is Staphylococcus aureus NCTC 10788.
Experiment [18] deals with Candida albicans ATCC 2002.
Experiment [19] concerns Staphylococcus aureus ATCC 25923.
Experiment [20] has as its system Listeria monocytogenes ATCC 19115.
Experiment [21] concerns Pseudomonas aeruginosa PAO1.
Experiment [22] relates to Staphylococcus aureus USA 300.

Turning to `CC[C@H](C)[C@H](NC(=O)CNC(=O)CNC(=O)[C@H](C)NC(=O)[C@@H](NC(=O)[C@H](CCCCN)NC(=O)[C@@H]1CCCN1C(=O)[C@@H](NC(=O)[C@H](CC(C)C)NC(=O)[C@H](CO)NC(=O)[C@H](CC(C)C)NC(=O)[C@@H](N)Cc1ccccc1)[C@@H](C)CC)[C@@H](C)CC)C(=O)N[C@@H](C)C(=O)N[C@@H](CO)C(=O)N[C@@H](CC(C)C)C(=O)N[C@H](C(=O)N[C@@H](CCCCN)C(=O)N[C@@H](CC(=O)O)C(=O)N[C@@H](CC(C)C)C(N)=O)C(C)C` [FLSLIPKIAGGIASLVKDL], the results for the MIC in experiment [1], in experiment [2] and in experiment [3] were not below 100 µM, 100 µM (≈ 195 µg/mL) and 100 µM (≈ 195 µg/mL), respectively.
For the molecule `CC[C@H](C)[C@H](NC(=O)CNC(=O)CNC(=O)[C@H](C)NC(=O)[C@@H](NC(=O)[C@H](CCCCN)NC(=O)[C@@H]1CCCN1C(=O)[C@@H](NC(=O)[C@H](CC(C)C)NC(=O)[C@H](CO)NC(=O)[C@H](CC(C)C)NC(=O)[C@@H](N)Cc1ccccc1)[C@@H](C)CC)[C@@H](C)CC)C(=O)N[C@@H](C)C(=O)N[C@@H](CO)C(=O)N[C@@H](CC(C)C)C(=O)N[C@H](C(=O)N[C@@H](CCCCN)C(=O)N[C@@H](CC(N)=O)C(=O)N[C@@H](CC(C)C)C(N)=O)C(C)C` [FLSLIPKIAGGIASLVKNL], the results for the MIC in experiment [1], in experiment [2] and in [3] were not below 50 µM, 25 µM (≈ 48.8 µg/mL) and 6.25 µM (≈ 12.2 µg/mL), respectively.
On to `CC[C@H](C)[C@H](N)C(=O)N[C@@H](CC(N)=O)C(=O)N[C@H](C(=O)N[C@H](C(=O)N[C@@H](CC(N)=O)C(=O)N[C@@H](C)C(=O)N1CCC[C@H]1C(=O)N[C@@H](CC(C)C)C(=O)N[C@@H](CCC(N)=O)C(=O)NCC(=O)N[C@@H](Cc1ccccc1)C(=O)N[C@@H](CCCCN)C(=O)N[C@H](C(=O)N[C@@H](C)C(=O)O)[C@@H](C)CC)[C@@H](C)CC)[C@@H](C)CC` [INIINAPLQGFKIA], for which the values for the MIC (against Bacillus subtilis 168 HT; in experiment [4]) were 21.2 µM (≈ 32 µg/mL) and 10.6 µM (≈ 16 µg/mL), respectively.
`CC[C@H](C)[C@H](NC(=O)[C@@H](N)CCCCN)C(=O)N[C@@H](Cc1c[nH]c2ccccc12)C(=O)N[C@@H](Cc1c[nH]c2ccccc12)C(=O)N[C@@H](Cc1c[nH]c2ccccc12)C(=O)N[C@@H](Cc1c[nH]c2ccccc12)C(=O)N[C@@H](CC(C)C)C(=O)N[C@@H](CCCN=C(N)N)C(N)=O` [KIWWWWLR]: the MIC in experiment [2] amounted to 8.8 µM (≈ 11.2 µg/mL); in experiment [5], 12.5 µM (≈ 15.9 µg/mL); in experiment [6], 3.1 µM (≈ 3.94 µg/mL).
Consider `CC[C@H](C)[C@@H]1NC(=O)CNC(=O)[C@H](CCCN=C(N)N)NC(=O)[C@H](Cc2ccc(O)cc2)NC(=O)[C@@H]2CSSC[C@H](NC1=O)C(=O)N[C@@H](Cc1ccc(O)cc1)C(=O)N[C@@H](C)C(=O)N[C@@H](CCCN=C(N)N)C(=O)N[C@H](C(=O)N[C@@H](CCCN=C(N)N)C(=O)O)CSSC[C@H](NC(=O)[C@H](Cc1c[nH]c3ccccc13)NC(=O)[C@@H](N)CCCCN)C(=O)N[C@@H](Cc1ccccc1)C(=O)N[C@@H](CCCN=C(N)N)C(=O)N[C@@H](C(C)C)C(=O)N2` [KWCFRVCYRGICYARCR], for which the MIC worked out at 0.0572 µM (≈ 0.125 µg/mL) in experiment [7]; 0.0572 µM (≈ 0.125 µg/mL) against Acinetobacter baumannii; 0.0572 µM (≈ 0.125 µg/mL) in experiment [8]; 3.66 µM (≈ 7.99 µg/mL) in experiment [9]; 0.115 µM (≈ 0.25 µg/mL) in experiment [10]; 0.0572 µM (≈ 0.125 µg/mL) in experiment [2]. Besides, the MIC in experiment [5] stood at 0.0275 µM (≈ 0.0599 µg/mL); in [11] it was 0.229 µM (≈ 0.499 µg/mL); in experiment [12], 0.115 µM (≈ 0.25 µg/mL); against Klebsiella pneumoniae, 0.458 µM (≈ 0.998 µg/mL); in experiment [13], 0.0572 µM (≈ 0.125 µg/mL); with Pseudomonas aeruginosa, 0.115 µM (≈ 0.25 µg/mL). Also, in [14], the MIC came to 0.229 µM (≈ 0.499 µg/mL).
`CC(C)C[C@H](NC(=O)[C@H](CCCN=C(N)N)NC(=O)[C@H](CC(N)=O)NC(=O)[C@H](CC(C)C)NC(=O)[C@H](CCCCN)NC(=O)[C@H](CCCCN)NC(=O)[C@H](CC(C)C)NC(=O)[C@@H](NC(=O)[C@@H](N)CC(N)=O)C(C)C)C(=O)N[C@@H](CCCCN)C(=O)N[C@@H](CCC(=O)O)C(=O)N[C@@H](CCCCN)C(=O)N[C@@H](CC(N)=O)C(=O)N[C@@H](CCCCN)C(=O)N[C@@H](C)C(=O)N[C@@H](CCCCN)C(=O)N[C@@H](CC(N)=O)C(=O)N[C@@H](CO)C(=O)N[C@@H](CCCCN)C(=O)N[C@@H](CCC(=O)O)C(=O)N[C@@H](CC(N)=O)C(=O)N[C@@H](CC(N)=O)C(=O)O` [NVLKKLNRLKEKNKAKNSKENN]: the MIC in experiment [15] is not below 98 µM; in experiment [16], not below 196 µM; in experiment [13] it was more than 196 µM; in [17], not below 196 µM.
Consider `CC[C@H](C)[C@H](NC(=O)[C@H](CCCCN)NC(=O)[C@H](CCCCN)NC(=O)[C@H](CC(C)C)NC(=O)[C@H](Cc1cnc[nH]1)NC(=O)[C@H](CCCCN)NC(=O)[C@H](CCCCN)NC(=O)[C@H](CC(C)C)NC(=O)[C@@H](N)CCCN=C(N)N)C(=O)N[C@@H](CCCCN)C(=O)O` [RLKKHLKKIK], for which the MIC against Bacillus subtilis 168 HT and against Escherichia coli MG1655 was not below 99.1 µM each time.
For the molecule `CC[C@H](C)[C@H](NC(=O)[C@H](C)NC(=O)[C@@H](NC(=O)[C@@H](NC(=O)[C@H](CCCCN)NC(=O)[C@@H](NC(=O)[C@H](CCCCN)NC(=O)[C@H](CC(=O)O)NC(=O)[C@H](CCCN=C(N)N)NC(=O)[C@@H](NC(=O)[C@@H](N)CO)[C@@H](C)CC)[C@@H](C)CC)[C@@H](C)O)[C@@H](C)CC)C(=O)N[C@@H](CC(=O)O)C(=O)N[C@@H](CC(C)C)C(=O)N[C@@H](C)C(=O)N[C@@H](CCCCN)C(=O)N[C@@H](CO)C(=O)N[C@@H](C)C(=O)NCC(=O)N[C@H](C(=O)NCC(=O)N[C@H](C(=O)N[C@@H](CC(C)C)C(=O)N[C@@H](CCCCN)C(=O)N[C@H](C(=O)N[C@@H](CC(C)C)C(=O)N[C@H](C(=O)N[C@H]1CSSC[C@@H](C(=O)O)NC(=O)[C@H](CO)NC(=O)[C@H](CCCCN)NC(=O)[C@H](CC(=O)O)NC(=O)[C@H](CC(C)C)NC(=O)[C@H](CCCCN)NC1=O)[C@@H](C)CC)[C@@H](C)O)C(C)C)[C@@H](C)O` [SIRDKIKTIAIDLAKSAGTGVLKTLICKLDKSC], the MIC was 2.68 µM (≈ 9.37 µg/mL) against Bacillus subtilis; 1.61 µM (≈ 5.63 µg/mL) in [18]; 7.13 µM (≈ 25 µg/mL) against Escherichia coli ML-35p; more than 28.5 µM in [13]; 1.34 µM (≈ 4.69 µg/mL) in experiment [19].
`CC(C)C[C@H](NC(=O)[C@H](Cc1ccccc1)NC(=O)[C@@H]1CCCN1C(=O)[C@@H]1CCCN1C(=O)[C@H](CC(N)=O)NC(=O)[C@@H](NC(=O)[C@@H](NC(=O)[C@@H]1CCCN1C(=O)[C@@H](N)[C@@H](C)O)C(C)C)C(C)C)C(=O)N[C@@H](CCC(N)=O)C(=O)N[C@@H](CCC(N)=O)C(=O)N[C@H](C(N)=O)[C@@H](C)O` [TPVVNPPFLQQT] showed a minimal inhibitory concentration (MIC) in experiment [20] not below 382 µM.
Consider `CC[C@H](C)[C@H](NC(=O)[C@H](CCCN=C(N)N)NC(=O)[C@H](CCCN=C(N)N)NC(=O)[C@H](CCCN=C(N)N)NC(=O)[C@H](Cc1c[nH]c2ccccc12)NC(=O)[C@H](Cc1c[nH]c2ccccc12)NC(=O)[C@@H](N)Cc1c[nH]c2ccccc12)C(=O)N[C@@H](Cc1c[nH]c2ccccc12)C(N)=O` [WWWRRRIW], for which the MIC in [2] was found to be 25 µM (≈ 33.6 µg/mL); in [5] it was 25 µM (≈ 33.6 µg/mL); in experiment [21], 35.4 µM (≈ 47.5 µg/mL); in experiment [6], 12.5 µM (≈ 16.8 µg/mL); in experiment [22], 12.5 µM (≈ 16.8 µg/mL).

(Values after DBAASP.)
